EC50 data for 24 molecules are collected here from patent publication US20250312352A1, “GLP-1R MODULATING COMPOUNDS” (Gilead Sciences, Inc., priority 2021, published 2025).

The assay concerns the target T1, GLP-1R (Homo sapiens, UniProt P43220).
T1 construct: host or cells: CHO cells
Put plainly: GLP-1R activation cAMP assay (Assay 1 or Assay 2). Format: cell-based. The conditions noted are these: cAMP increase in CHO cells stably expressing GLP-1R; compounds run on one of the two cAMP assays. How it is done: GLP-1R ACTIVATION—cAMP Assay 1
GLP-1R activation by compounds of the present disclosure was quantified by measuring cAMP increase in CHO cells stably expressing GLP-1R (MultiSpan product #C1267-1a). The cells were harvested and plated in growth medium (DMEM/F-12 (Corning product #10-090-CV) supplemented with 10% FBS (HyClone product #SH30071-03), penicillin/streptomycin (Corning product #30-002CI) and 10 μg/ml puromycin (Gibco product #A11138-03)) at 1,000 cells/well in a 384-well plate (Greiner product #781080). The cells were then incubated overnight at 37° C., 5% CO2. The next day, the medium was removed and the cells were washed with DPBS (Corning product #21-031-CM) before adding the assay medium (HBSS, Corning product #21-023-CV) with 20 mM Hepes (Gibco product #15630-080) and 0.1% BSA (Rockland Immunochemicals product #BSA-1000)). Following the medium change, the cells were incubated for 1 hour at 37° C., 5% CO2. The tested GLP-1 compound was added to the cells in a 10-point dose response followed by a 30-minute incubation at 37° C., 5% CO2. cAMP concentration increase was then detected using Cisbio's cAMP Gs Dynamic Kit (product #62AM4PEC) according to the manufacturer's protocol. The response was plotted against the log of the agonist concentration and fitted to a sigmoidal equation to determine the EC50.
GLP-1R ACTIVATION—cAMP Assay 2
GLP-1R activation by small molecule agonists was quantified by measuring cAMP increase in CHO cells stably expressing GLP-1R (MultiSpan product #C1267-1a). 50 nL of agonists were pre-spotted in a 10-point dose response onto 384-well plate (Corning product #CL3826) using the Labcyte Echo System.

T1 sequence (P43220 24-463): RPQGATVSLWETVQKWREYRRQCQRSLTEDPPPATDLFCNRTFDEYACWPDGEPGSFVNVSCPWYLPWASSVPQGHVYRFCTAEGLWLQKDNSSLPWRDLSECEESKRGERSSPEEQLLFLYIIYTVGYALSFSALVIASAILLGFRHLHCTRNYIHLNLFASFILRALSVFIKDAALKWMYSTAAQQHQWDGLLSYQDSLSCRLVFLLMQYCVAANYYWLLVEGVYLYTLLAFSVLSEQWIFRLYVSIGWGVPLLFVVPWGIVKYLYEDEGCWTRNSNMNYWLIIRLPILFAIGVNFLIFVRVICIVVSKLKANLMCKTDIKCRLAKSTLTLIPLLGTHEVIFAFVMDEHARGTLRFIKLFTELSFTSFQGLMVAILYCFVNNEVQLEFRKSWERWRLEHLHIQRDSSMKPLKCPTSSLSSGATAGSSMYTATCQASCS

For “2-(4-(6-((5-(difluoromethyl)thiazol-2-yl)methoxy)pyridin-2-yl)-2,5-difluorobenzyl)-4-fluoro-1-((1-(fluoromethyl)cyclopropyl)methyl)-1H-benzo[d]imidazole-6-carboxylic acid [Example 413]”, the EC50 was 0.36 nM.
Under “2-(4-(6-((5-chlorothiazol-2-yl)methoxy)pyridin-2-yl)-2,5-difluorobenzyl)-1-((1-(fluoromethyl)cyclopropyl)methyl)-1H-benzo[d]imidazole-6-carboxylic acid [Example 269]” stands 0.748 nM; under `Cc1nnc(COc2cccc(-c3cc(F)c(Cc4nc5ccc(C(=O)O)cc5n4[C@@H]4COCC4(C)C)c(F)c3F)n2)s1` (single isomer, unassigned) [Example 281A], 0.27 nM; under `Cc1nnc(COc2cccc(-c3cc(F)c(Cc4nc5ccc(C(=O)O)cc5n4[C@H]4COCC4(C)C)c(F)c3F)n2)s1` (single isomer, unassigned) [Example 281B], 20.8 nM.
The figure for `COc1nnc(COc2cccc(-c3cc(F)c(Cc4nc5ccc(C(=O)O)cc5n4C[C@@H]4CCO4)cc3F)n2)s1` [Example 1, 2-[[2,5-difluoro-4-[6-[(5-methoxy-1,3,4-thiadiazol-2-yl)methoxy]-2-pyridyl]phenyl]methyl]-3-[[(2S)-oxetan-2-yl]methyl]benzimidazole-5-carboxylic acid] is 0.27 nM; for `N#Cc1cnc(COc2cccc(-c3cc(F)c(Cc4nc5ccc(C(=O)O)cc5n4C[C@@H]4CCO4)cc3F)n2)s1` [Example 2, (S)-2-(4-(6-((5-cyanothiazol-2-yl)methoxy)pyridin-2-yl)-2,5-difluorobenzyl)-1-(oxetan-2-ylmethyl)-1H-benzo[d]imidazole-6-carboxylic acid] it is 0.11 nM.
Under `NC(=O)c1cnc(COc2cccc(-c3cc(F)c(Cc4nc5ccc(C(=O)O)cc5n4C[C@@H]4CCO4)cc3F)n2)s1` [Example 3, (S)-2-(4-(6-((5-carbamoylthiazol-2-yl)methoxy)pyridin-2-yl)-2,5-difluorobenzyl)-1-(oxetan-2-ylmethyl)-1H-benzo[d]imidazole-6-carboxylic acid] stands 3.15 nM.
For the molecule `NC(=O)c1csc(COc2cccc(-c3cc(F)c(Cc4nc5ccc(C(=O)O)cc5n4C[C@@H]4CCO4)cc3F)n2)n1` [Example 5, (S)-2-(4-(6-((4-carbamoylthiazol-2-yl)methoxy)pyridin-2-yl)-2,5-difluorobenzyl)-1-(oxetan-2-ylmethyl)-1H-benzo[d]imidazole-6-carboxylic acid], the EC50 is 0.5 nM.
`O=C(O)c1ccc2nc(Cc3cc(F)c(-c4cccc(OCc5ccn(C6CC6)n5)n4)cc3F)n(C[C@@H]3CCO3)c2c1` [Example 6, (S)-2-(4-(6-((1-cyclopropyl-1H-pyrazol-3-yl)methoxy)pyridin-2-yl)-2,5-difluorobenzyl)-1-(oxetan-2-ylmethyl)-1H-benzo[d]imidazole-6-carboxylic acid] returned an EC50 of 3.09 nM.
On to `O=C(O)c1ccc2nc(Cc3cc(F)c(-c4cccc(OCc5cc6n(n5)CCOC6)n4)cc3F)n(C[C@@H]3CCO3)c2c1` [Example 7, (S)-2-(4-(6-((6,7-dihydro-4H-pyrazolo[5,1-c][1,4]oxazin-2-yl)methoxy)pyridin-2-yl)-2,5-difluorobenzyl)-1-(oxetan-2-ylmethyl)-1H-benzo[d]imidazole-6-carboxylic acid], for which the EC50 was 3.71 nM.
Under `NC(=O)c1nc(COc2cccc(-c3cc(F)c(Cc4nc5ccc(C(=O)O)cc5n4C[C@@H]4CCO4)cc3F)n2)cs1` [Example 8, (S)-2-(4-(6-((2-carbamoylthiazol-4-yl)methoxy)pyridin-2-yl)-2,5-difluorobenzyl)-1-(oxetan-2-ylmethyl)-1H-benzo[d]imidazole-6-carboxylic acid] stands 0.92 nM; under `O=C(O)c1ccc2nc(Cc3cc(F)c(-c4cccc(OCc5ccn(C(F)F)n5)n4)cc3F)n(C[C@@H]3CCO3)c2c1` [Example 9, (S)-2-(4-(6-((1-(difluoromethyl)-1H-pyrazol-3-yl)methoxy)pyridin-2-yl)-2,5-difluorobenzyl)-1-(oxetan-2-ylmethyl)-1H-benzo[d]imidazole-6-carboxylic acid], 0.95 nM; under `O=C(O)c1ccc2nc(Cc3cc(F)c(-c4cccc(OCc5ccn(C6COC6)n5)n4)cc3F)n(C[C@@H]3CCO3)c2c1` [Example 10, (S)-2-(2,5-difluoro-4-(6-((1-(oxetan-3-yl)-1H-pyrazol-3-yl)methoxy)pyridin-2-yl)benzyl)-1-(oxetan-2-ylmethyl)-1H-benzo[d]imidazole-6-carboxylic acid], 7.55 nM.
Under `O=C(O)c1ccc2nc(Cc3cc(F)c(-c4cccc(OCc5nccs5)n4)cc3F)n(C[C@@H]3CCO3)c2c1` [Example 11, (S)-2-(2,5-difluoro-4-(6-(thiazol-2-ylmethoxy)pyridin-2-yl)benzyl)-1-(oxetan-2-ylmethyl)-1H-benzo[d]imidazole-6-carboxylic acid] stands 0.6 nM; under `O=C(O)c1ccc2nc(Cc3cc(F)c(-c4cccc(OCc5ccn(C(F)(F)F)n5)n4)cc3F)n(C[C@@H]3CCO3)c2c1` [Example 12, (S)-2-(2,5-difluoro-4-(6-((1-(trifluoromethyl)-1H-pyrazol-3-yl)methoxy)pyridin-2-yl)benzyl)-1-(oxetan-2-ylmethyl)-1H-benzo[d]imidazole-6-carboxylic acid], 1.16 nM.
The figure for `O=C(O)c1ccc2nc(Cc3cc(F)c(-c4cccc(OCc5cc(C(F)(F)F)sn5)n4)cc3F)n(C[C@@H]3CCO3)c2c1` [Example 13, (S)-2-(2,5-difluoro-4-(6-((5-(trifluoromethyl)isothiazol-3-yl)methoxy)pyridin-2-yl)benzyl)-1-(oxetan-2-ylmethyl)-1H-benzo[d]imidazole-6-carboxylic acid] is 0.54 nM.
Molecule `N#Cc1ccc(COc2cccc(-c3cc(F)c(Cc4nc5ccc(C(=O)O)cc5n4C[C@@H]4CCO4)cc3F)n2)o1` [Example 14, (S)-2-(4-(6-((5-cyanofuran-2-yl)methoxy)pyridin-2-yl)-2,5-difluorobenzyl)-1-(oxetan-2-ylmethyl)-1H-benzo[d]imidazole-6-carboxylic acid] displayed an EC50 of 5.68 nM.
Under `O=C(O)c1ccc2nc(Cc3cc(F)c(-c4cccc(OCc5nnc(C(F)F)s5)n4)cc3F)n(C[C@@H]3CCO3)c2c1` [Example 15, (S)-2-(4-(6-((5-(difluoromethyl)-1,3,4-thiadiazol-2-yl)methoxy)pyridin-2-yl)-2,5-difluorobenzyl)-1-(oxetan-2-ylmethyl)-1H-benzo[d]imidazole-6-carboxylic acid] stands 0.96 nM; under `COCc1noc(COc2cccc(-c3cc(F)c(Cc4nc5ccc(C(=O)O)cc5n4C[C@@H]4CCO4)cc3F)n2)n1` [Example 16, (S)-2-(2,5-difluoro-4-(6-((3-(methoxymethyl)-1,2,4-oxadiazol-5-yl)methoxy)pyridin-2-yl)benzyl)-1-(oxetan-2-ylmethyl)-1H-benzo[d]imidazole-6-carboxylic acid], 8.86 nM; under `Cc1nc(COc2cccc(-c3cc(F)c(Cc4nc5ccc(C(=O)O)cc5n4C[C@@H]4CCO4)cc3F)n2)no1` [Example 17, (S)-2-(2,5-difluoro-4-(6-((5-methyl-1,2,4-oxadiazol-3-yl)methoxy)pyridin-2-yl)benzyl)-1-(oxetan-2-ylmethyl)-1H-benzo[d]imidazole-6-carboxylic acid], 7 nM.
Under `O=C(O)c1ccc2nc(Cc3cc(F)c(-c4cccc(OCc5cc(C(F)(F)F)co5)n4)cc3F)n(C[C@@H]3CCO3)c2c1` [Example 18, (S)-2-(2,5-difluoro-4-(6-((4-(trifluoromethyl)furan-2-yl)methoxy)pyridin-2-yl)benzyl)-1-(oxetan-2-ylmethyl)-1H-benzo[d]imidazole-6-carboxylic acid] stands 0.32 nM.
Under `O=C(O)c1ccc2nc(Cc3cc(F)c(-c4cccc(OCc5nccn5C(F)F)n4)cc3F)n(C[C@@H]3CCO3)c2c1` [Example 19, (S)-2-(4-(6-((1-(difluoromethyl)-1H-imidazol-2-yl)methoxy)pyridin-2-yl)-2,5-difluorobenzyl)-1-(oxetan-2-ylmethyl)-1H-benzo[d]imidazole-6-carboxylic acid] stands 23.2 nM; under `O=C(O)c1ccc2nc(Cc3cc(F)c(-c4cccc(OCc5cnc(Cl)s5)n4)cc3F)n(C[C@@H]3CCO3)c2c1` [Example 20, (S)-2-(4-(6-((2-chlorothiazol-5-yl)methoxy)pyridin-2-yl)-2,5-difluorobenzyl)-1-(oxetan-2-ylmethyl)-1H-benzo[d]imidazole-6-carboxylic acid], 0.33 nM; under `O=C(O)c1ccc2nc(Cc3cc(F)c(-c4cccc(OCc5cnc(Br)s5)n4)cc3F)n(C[C@@H]3CCO3)c2c1` [Example 21, (S)-2-(4-(6-((2-bromothiazol-5-yl)methoxy)pyridin-2-yl)-2,5-difluorobenzyl)-1-(oxetan-2-ylmethyl)-1H-benzo[d]imidazole-6-carboxylic acid], 0.41 nM.
